Patent US9688651B2, “Geranyl geranyl acetone analogs and uses thereof” (NYKEN Holding B.V., priority 2012, dated 2017)
Entries after “also recorded” stand apart in the source; their conditions may differ.

Key:
[1] = tested on: MCF-7 breast cancer cells; test: MCF-7 cell death, ratio death/living cells (trypan blue); type: cell-based, human; parameters: key to Cell Death MCF-7 cancer cells Death/living 100 μM: 0 = no dead cells; + = P < 0.05; ++ = P < 0.01; +++ = P < 0.001; settings: for Cell Death MCF-7 cancer cells Death/living 100 μM: 16-20 hours, trypan blue; for cell death in MCF-7: 10 μM, 16 hours
Method: MCF-7 breast cancer cells were cultured in DMEM supplemented with 10% FCS. […] Ratio death and living cells was determined by using trypan blue staining of death cells. The cell pellets were lysed in RIPA buffer and used for Western blot analysis.
Since we observed that some compounds aggravate tachypacing-induced contractile dysfunction, we next investigated if these compounds can induce programmed cell death in a human breast cancer cell-line MCF-7. […] In total 28 compounds were tested for cell death. […] GGA was used as a control as well as non-treated MCF-7 cells. […] The findings indicate that GGA-like compounds which aggravate heart failure can induce programmed cell death in MCF-7 breast cancer cell-line.

[2] = tested on: HSP70; test: HSP70 protein boosting in HL-1 cardiomyocytes after mild heat shock (Western blot); type: cell-based, mouse; parameters: key to HSP boosting HL-1 cardiomyocytes Protein HSP70: 0 = no induction HSP levels; + = 2-10-fold induction; ++ = 10-30-fold induction; +++ = > 30-fold induction; settings: for HSP boosting HL-1 cardiomyocytes Protein HSP70: mild heat shock 44°C 10 min, then compound 10 μM for 6 hours, Western blot; for induction of mammalian HSP70 protein expression: HL-1, mild heat shock, 10 μM, 6 hours
Method: HL-1 atrial myocytes, a cell line derived from adult mouse atria were obtained from Dr. William Claycomb (Louisiana State University, New Orleans, La., USA). The myocytes were maintained in Complete Claycomb Medium (JRH, UK) supplemented with 100 μM norepinephrine stock (consisting of 10 mM norepinephrine (Sigma, The Netherlands) dissolved in 0.3 mM L-ascorbic acid (Sigma)), 4 mM L-glutamine (Gibco, The Netherlands) and 10% FBS (Sigma). The myocytes were cultured in flasks coated with 0.02% gelatin (Sigma), in a 5% CO2 atmosphere at 37° C.
HL-1 cardiomyocytes were subjected to a mild heat shock of 44° C. for 10 minutes. After a recovery of 10 minutes (37 degrees 5% CO2), compounds were added in a final concentration of 10 μM (dissolved in DMSO, final concentration 0.1%). To control myocytes, 0.1% DMSO was added. After six hours the cells were lysed in RIPA buffer and used for Western blotting as described previously.^3, 10
(§1) Western-blot analysis was performed as described previously^3, 10. Equal amount of protein in SDS-PAGE sample buffer was sonicated before separation on 10% PAA-SDS gels. After transfer to nitrocellulose membranes (Stratagene, The Netherlands), membranes were incubated with primary antibodies against HSP25 (Stressgen, The Netherlands, SPA-801, 1:1000), HSP27 (Stressgen, SPA-800, 1:1000), HSP70 (Stressgen, SPA-810, 1:1000), GAPDH (Affinity Reagents, The Netherlands) or PARP (Santa Cruz, The Netherlands, sc-7150, 1:500). Horseradish peroxidase-conjugated anti-mouse or anti-rabbit (Santa-Cruz Biotechnology, The Netherlands) was used as secondary antibody. Signals were detected by the ECL-detection method (Amersham, The Netherlands) and quantified by densitometry using GeneTools software from Syngene (The Netherlands).
Compounds were also screened for HSP70 boosting effects. Hereto, HL-1 cardiomyocytes were first subjected to a mild heat shock which activates the Heat Shock Factor. After the mild heat shock, compound (10 μM) was added to the medium of HL-1 cardiomyocytes for 6 hours, followed by determination of the HSP70 amount.

[3] = tested on: HSP70; test: HSP70 Western blot in MCF-7 cells; type: cell-based, human; parameters: key: + = P < 0.05; ++ = P < 0.01; +++ = P < 0.001; settings: MCF-7 lysate, 16-20 hours
Method: (§2) MCF-7 breast cancer cells were cultured in DMEM supplemented with 10% FCS. Test compounds were added to the medium in a final concentration of […] for 16-20 hours. Ratio death and living cells was determined by using trypan blue staining of death cells. The cell pellets were lysed in RIPA buffer and used for Western blot analysis.
as §1

[4] = tested on: HSP27; test: HSP27 Western blot in MCF-7 cells; type: cell-based, human; parameters: key: + = P < 0.05; ++ = P < 0.01; +++ = P < 0.001; settings: MCF-7 lysate, 16-20 hours
Method: as §2, §1

[5] = tested on: PARP; test: PARP cleavage in MCF-7 cells (Western blot); type: cell-based, human; parameters: key to Cell Death MCF-7 cancer cells PARP: 0 = no dead cells; + = P < 0.05; ++ = P < 0.01; +++ = P < 0.001; settings: for Cell Death MCF-7 cancer cells PARP: MCF-7 lysate, Western blot, 16-20 hours; for PARP cleavage, indicative of pro-apoptotic caspase activation: MCF-7, 10 μM, 16 hours
Method: as §2, §1
Since we observed that some compounds aggravate tachypacing-induced contractile dysfunction, we next investigated if these compounds can induce programmed cell death in a human breast cancer cell-line MCF-7. Hereto, MCF-7 cells were incubated for 16 hours with 10 μM of a test compound after which the number of death and living cells was determined. In total 28 compounds were tested for cell death. […] GGA was used as a control as well as non-treated MCF-7 cells. […] The findings indicate that GGA-like compounds which aggravate heart failure can induce programmed cell death in MCF-7 breast cancer cell-line.

[6] = tested on: HSP70; test: Hsp70 induction in murine proximal tubule (MPT) cells (Western blot); type: cell-based; settings: 40 μM, 5 hours, outperformed positive control GGA
Method: Murine proximal tubule (MPT) cells were isolated and cultured as described previously (Borkan et al. Heat stress ameliorates ATP depletion-induced sublethal injury in mouse proximal tubule cells. Am. J. Physiol. 1997; F347-55).
The MPT cells were exposed to 40 μM of compound for 5 hours, after which the cells were harvested in RIPA buffer followed by Western blotting.
For Western-blot analysis, equal amount of protein in SDS-PAGE sample buffer was separated on 10% PAA-SDS gels. After transfer to nitrocellulose membranes (Stratagene, USA), membranes were incubated with primary antibodies against HSP70 (Enzo C92F3A/StressGen SP810) or beta-actin (Sigma A541). Horseradish peroxidase-conjugated anti-mouse or anti-sheep (Jackson ImmunoRes) was used as secondary antibody. Signals were detected by the ECL-detection method (Amersham).

[7] = tested on: HSP90; test: HSP90 mRNA (qPCR) in HL-1 cardiomyocytes after mild heat shock; type: cell-based, mouse; settings: then compound 10 μM for 6 hours
Method: (§3) HL-1 cardiomyocytes were subjected to a mild heat shock of 44° C. for 10 minutes. After a recovery of 10 minutes (37 degrees 5% CO2), compounds were added in a final concentration of 10 μM (dissolved in DMSO, final concentration 0.1%). To control myocytes, 0.1% DMSO was added. After six hours the cells were lysed in RIPA buffer and used for Western blotting as described previously.^3, 10 Compounds were also screened for their ability to upregulate HSP gene expression. Hereto, HL-1 cardiomyocytes were first subjected to a mild heat shock which activates the Heat Shock Factor. After the mild heat shock, compound (10 μM) was added to the medium of HL-1 cardiomyocytes for 6 hours, followed by determination of HSP70, HSP25, HSP90 and HSP40 which are targets of the heat shock factor 1 (HSF1) transcription factor. In addition, we determined mRNA levels of the gene encoding the glucose-responsive protein 78 (Grp78) which is HSF1-independent.

[8] = tested on: glucose-responsive protein 78 (Grp78); test: Grp78 mRNA (qPCR, HSF1-independent) in HL-1 cardiomyocytes; type: cell-based, mouse; parameters: key to HSP boosting HL-1 cardiomyocytes mRNA (qPCR) Grp78 Not HSF1: 0 = no induction HSP levels; + = 2-10-fold induction; ++ = 10-30-fold induction; +++ = > 30-fold induction; settings: for HSP boosting HL-1 cardiomyocytes mRNA (qPCR) Grp78 Not HSF1: mild heat shock, then compound 10 μM for 6 hours
Method: as §3

[9] = tested on: HSP25; test: HSP25 mRNA (qPCR) in HL-1 cardiomyocytes after mild heat shock; type: cell-based, mouse; settings: then compound 10 μM for 6 hours
Method: as §3

[10] = tested on: HSP40; test: HSP40 mRNA (qPCR) in HL-1 cardiomyocytes after mild heat shock; type: cell-based, mouse; settings: then compound 10 μM for 6 hours
Method: as §3

[11] = tested on: HSP70, HSP25, HSP90 and HSP40; test: Upregulation of HSP gene expression (HSF1 targets) in HL-1 cardiomyocytes; type: cell-based, mouse; settings: HL-1, mild heat shock, 10 μM, 6 hours
Method: as §3

Structure (SMILES) | Cell Death MCF-7 cancer cells Death/living 100 μM [1] | HSP boosting HL-1 cardiomyocytes Protein HSP70 [2] | Cell Death MCF-7 cancer cells HSP 70 [3] | Cell Death MCF-7 cancer cells HSP 27 [4] | Cell Death MCF-7 cancer cells PARP [5] | induction of HSP70 expression in renal (MPT) cells [6] | induction of mammalian HSP70 protein expression [2] | other results
CC(C)=CCC/C(C)=C/CCc1cc(C)[nH]n1 [Compound 32] | 0 | + (+ = 2-10-fold induction) | 0 | + (+ = P < 0.05) | 0 | strong inducers |  | 
CC(C)=CCC/C(C)=C/CN1C(=O)CCC1=O [Compound 47] |  |  |  |  |  | strong inducers |  | 
CC(=O)N[C@@H](C)C(=O)NC/C=C(\C)CCC=C(C)C [Compound 95] |  | +++ (+++ = > 30-fold induction) |  |  |  | strong inducers | potent inducers | HSP boosting HL-1 cardiomyocytes mRNA (qPCR) HSP 90 [7]: ++ (++ = 10-30-fold induction); HSP boosting HL-1 cardiomyocytes mRNA (qPCR) Grp78 Not HSF1 [8]: 0; HSP boosting HL-1 cardiomyocytes mRNA (qPCR) HSP 25 [9]: + (+ = 2-10-fold induction); HSP boosting HL-1 cardiomyocytes mRNA (qPCR) HSP 40 [10]: + (+ = 2-10-fold induction)
CCOC(=O)C(CC)C(=O)CC/C=C(\C)CCC=C(C)C (centres unmarked) [Compound 69] |  | 0 |  |  |  | strong inducers |  | 
CCOC(=O)CC(=O)c1ccccc1O [Compound 60, Ethyl 3-(2-hydroxyphenyl)-3-oxopropanoate] |  |  |  |  |  |  | potent inducers | upregulation of Grp78 mRNA ([8]; HL-1, mild heat shock, 10 μM, 6 hours): no upregulation; induction of HSP gene expression [11]: strong inducers
CC(C)=CCC/C(C)=C/CCc1cc(O)nn1Cc1ccccc1 [Compound 65] | ++ (++ = P < 0.01) | 0 | ++ (++ = P < 0.01) | +++ (+++ = P < 0.001) | ++ (++ = P < 0.01) |  |  | cell death in MCF-7 [1]: significant increase in cell death; also recorded: induce cell death; PARP cleavage, indicative of pro-apoptotic caspase activation [5]: induced PARP cleavage
CC(C)=CCC/C(C)=C/CCc1cc(C)nn1-c1ccc(C#N)cc1 [Compound 41] | + (+ = P < 0.05) | 0 | 0 | + (+ = P < 0.05) | + (+ = P < 0.05) |  |  | cell death in MCF-7 [1]: significant increase in cell death; also recorded: induce cell death; PARP cleavage, indicative of pro-apoptotic caspase activation [5]: induced PARP cleavage
CCOC(=O)CC(=O)NC/C=C(\C)CCC=C(C)C [Compound 98] | 0 | 0 | 0 | ++ (++ = P < 0.01) | 0 |  |  | 
CC(C)=CCC/C(C)=C/CNC(=O)CN(C)C [Compound 49] | 0 | +++ (+++ = > 30-fold induction) | 0 | 0 | 0 | strong inducers | potent inducers | HSP boosting HL-1 cardiomyocytes mRNA (qPCR) HSP 90 [7]: +++ (+++ = > 30-fold induction); HSP boosting HL-1 cardiomyocytes mRNA (qPCR) Grp78 Not HSF1 [8]: 0; HSP boosting HL-1 cardiomyocytes mRNA (qPCR) HSP 25 [9]: +++ (+++ = > 30-fold induction); HSP boosting HL-1 cardiomyocytes mRNA (qPCR) HSP 40 [10]: +++ (+++ = > 30-fold induction)
CC(=O)OC/C=C(\C)CC/C=C(\C)COC1CCCCO1 (centres unmarked) [Compound 106] |  |  |  |  |  | strong inducers |  | 
